Inconclusive results and toxic doses are left out. The calls were made as follows: active = survival T/C of 150% or more; inactive = T/C below 125% in these data.
Tested on: BDF1 mice, P388 leukemia ip, median survival T/C
Assay: NCI In Vivo Anticancer Drug Screen. Data for tumor model P388 Leukemia (intraperitoneal) in B6D2F1 (BDF1) mice
Conditions: endpoint: median survival time, higher = longer survival
How it was run: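 T/C = treated-group survival ÷ vehicle-control survival; tumour transplanted into mice before dosing.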

Measured: T/C

CCc1nc(N)nc(N)c1-c1ccc(Cl)cc1
inactive: dose: 2.0 mg/kg/injection, schedule: Q03HX008 (ip), vehicle: Klucel (hydroxypropylcellulose) (HPC) 100 % of control | dose: 2.0 mg/kg/injection, schedule: Q03HX016 (ip), vehicle: Klucel (hydroxypropylcellulose) (HPC) 91 % of control | dose: 2.0 mg/kg/injection, schedule: Q03HX024 (ip), vehicle: Klucel (hydroxypropylcellulose) (HPC) 91 % of control | dose: 4.0 mg/kg/injection, schedule: Q01DX009 (ip), vehicle: Klucel (hydroxypropylcellulose) (HPC) 95 % of control | dose: 4.0 mg/kg/injection, schedule: Q01DX009 (sc), vehicle: Klucel (hydroxypropylcellulose) (HPC) 100 % of control | dose: 4.0 mg/kg/injection, schedule: Q03HX008 (ip), vehicle: Klucel (hydroxypropylcellulose) (HPC) 95 % of control | dose: 4.0 mg/kg/injection, schedule: Q03HX016 (ip), vehicle: Klucel (hydroxypropylcellulose) (HPC) 100 % of control | dose: 4.0 mg/kg/injection, schedule: Q03HX024 (ip), vehicle: Klucel (hydroxypropylcellulose) (HPC) 91 % of control | dose: 8.0 mg/kg/injection, schedule: Q01DX009 (ip), vehicle: Klucel (hydroxypropylcellulose) (HPC) 91 % of control | dose: 8.0 mg/kg/injection, schedule: Q01DX009 (sc), vehicle: Klucel (hydroxypropylcellulose) (HPC) 100 % of control | dose: 8.0 mg/kg/injection, schedule: Q01DX010 (ip), vehicle: saline 100 % of control | dose: 8.0 mg/kg/injection, schedule: Q03HX008 (ip), vehicle: Klucel (hydroxypropylcellulose) (HPC) 100 % of control | dose: 8.0 mg/kg/injection, schedule: Q03HX016 (ip), vehicle: Klucel (hydroxypropylcellulose) (HPC) 91 % of control | dose: 8.0 mg/kg/injection, schedule: Q03HX024 (ip), vehicle: Klucel (hydroxypropylcellulose) (HPC) 95 % of control | dose: 16.0 mg/kg/injection, schedule: Q01DX001 (ip), vehicle: Klucel (hydroxypropylcellulose) (HPC) 100 % of control | dose: 16.0 mg/kg/injection, schedule: Q01DX001 (oral), vehicle: Klucel (hydroxypropylcellulose) (HPC) 100 % of control | dose: 16.0 mg/kg/injection, schedule: Q01DX001 (sc), vehicle: Klucel (hydroxypropylcellulose) (HPC) 100 % of control | dose: 16.0 mg/kg/injection, schedule: Q01DX009 (ip), vehicle: Klucel (hydroxypropylcellulose) (HPC) 91 % of control | dose: 16.0 mg/kg/injection, schedule: Q01DX009 (oral), vehicle: Klucel (hydroxypropylcellulose) (HPC) 104 % of control | dose: 16.0 mg/kg/injection, schedule: Q01DX009 (sc), vehicle: Klucel (hydroxypropylcellulose) (HPC) 100 % of control | dose: 16.0 mg/kg/injection, schedule: Q01DX010 (ip), vehicle: saline 95 % of control | dose: 16.0 mg/kg/injection, schedule: Q03HX008 (ip), vehicle: Klucel (hydroxypropylcellulose) (HPC) 91 % of control | dose: 16.0 mg/kg/injection, schedule: Q03HX016 (ip), vehicle: Klucel (hydroxypropylcellulose) (HPC) 100 % of control | dose: 16.0 mg/kg/injection, schedule: Q03HX024 (ip), vehicle: Klucel (hydroxypropylcellulose) (HPC) 100 % of control | dose: 16.0 mg/kg/injection, schedule: Q04DX003 (ip), vehicle: Klucel (hydroxypropylcellulose) (HPC) 100 % of control | dose: 16.0 mg/kg/injection, schedule: Q08DX002 (ip), vehicle: Klucel (hydroxypropylcellulose) (HPC) 100 % of control | dose: 32.0 mg/kg/injection, schedule: Q01DX001 (ip), vehicle: Klucel (hydroxypropylcellulose) (HPC) 100 % of control | dose: 32.0 mg/kg/injection, schedule: Q01DX001 (oral), vehicle: Klucel (hydroxypropylcellulose) (HPC) 90 % of control | dose: 32.0 mg/kg/injection, schedule: Q01DX001 (sc), vehicle: Klucel (hydroxypropylcellulose) (HPC) 104 % of control | dose: 32.0 mg/kg/injection, schedule: Q01DX009 (ip), vehicle: Klucel (hydroxypropylcellulose) (HPC) 95 % of control | dose: 32.0 mg/kg/injection, schedule: Q01DX009 (sc), vehicle: Klucel (hydroxypropylcellulose) (HPC) 100 % of control | dose: 32.0 mg/kg/injection, schedule: Q01DX010 (ip), vehicle: saline 90 % of control | dose: 32.0 mg/kg/injection, schedule: Q04DX003 (ip), vehicle: Klucel (hydroxypropylcellulose) (HPC) 100 % of control | dose: 32.0 mg/kg/injection, schedule: Q08DX002 (ip), vehicle: Klucel (hydroxypropylcellulose) (HPC) 95 % of control | dose: 64.0 mg/kg/injection, schedule: Q01DX001 (ip), vehicle: Klucel (hydroxypropylcellulose) (HPC) 100 % of control | dose: 64.0 mg/kg/injection, schedule: Q01DX001 (oral), vehicle: Klucel (hydroxypropylcellulose) (HPC) 104 % of control | dose: 64.0 mg/kg/injection, schedule: Q01DX001 (sc), vehicle: Klucel (hydroxypropylcellulose) (HPC) 109 % of control | dose: 64.0 mg/kg/injection, schedule: Q01DX009 (ip), vehicle: Klucel (hydroxypropylcellulose) (HPC) 116 % of control | dose: 64.0 mg/kg/injection, schedule: Q01DX009 (sc), vehicle: Klucel (hydroxypropylcellulose) (HPC) 113 % of control | dose: 64.0 mg/kg/injection, schedule: Q01DX010 (ip), vehicle: saline 90 % of control | dose: 64.0 mg/kg/injection, schedule: Q04DX003 (ip), vehicle: Klucel (hydroxypropylcellulose) (HPC) 100 % of control | dose: 64.0 mg/kg/injection, schedule: Q08DX002 (ip), vehicle: Klucel (hydroxypropylcellulose) (HPC) 91 % of control | dose: 128.0 mg/kg/injection, schedule: Q01DX001 (ip), vehicle: Klucel (hydroxypropylcellulose) (HPC) 100 % of control | dose: 128.0 mg/kg/injection, schedule: Q01DX001 (oral), vehicle: Klucel (hydroxypropylcellulose) (HPC) 100 % of control | dose: 128.0 mg/kg/injection, schedule: Q01DX001 (sc), vehicle: Klucel (hydroxypropylcellulose) (HPC) 100 % of control | dose: 128.0 mg/kg/injection, schedule: Q04DX003 (ip), vehicle: Klucel (hydroxypropylcellulose) (HPC) 100 % of control | dose: 128.0 mg/kg/injection, schedule: Q08DX002 (ip), vehicle: Klucel (hydroxypropylcellulose) (HPC) 100 % of control

Reference: PubChem BioAssay AID328 (DTP/NCI, 2004)
